{"source": "patent US20100273700A1", "about": "“USE OF A PEPTIDE AS A THERAPEUTIC AGENT” (priority 2007, published 2010)", "system": "drug-resistant Mycobacterium tuberculosis", "conditions": "5 micrograms per ml"}
{"smiles": "CC(C)C[C@H](NC(=O)[C@H](Cc1ccccc1)NC(=O)CNC(=O)CNC(=O)[C@@H](N)Cc1ccc(O)cc1)C(=O)N[C@@H](CCCNC(=N)N)C(=O)N[C@@H](CCCNC(=N)N)C(=O)N[C@@H](CCC(N)=O)C(=O)N[C@@H](Cc1ccccc1)C(=O)N[C@@H](CCCCN)C(=O)N[C@H](C(=O)N[C@H](C(=O)N[C@H](C(=O)O)[C@@H](C)O)C(C)C)C(C)C", "note": "[Dynorphin B]", "values": [{"measurement": "% inhibition", "value": 0.0, "unit": "%"}]}
